Structures can show the parent of a compound that is named as a salt. Where two headings read alike, the source gives them in different places.
Tests used:
Assay in all cases: AK assay 384-well format, Prestwick library screening
P. aeruginosa = format: cell-based, Pseudomonas aeruginosa; settings: 50 μM final drug concentration; for fold induction at 50 µM: Pseudomonas aeruginosa, 3 h
E. cloacae = format: cell-based, Enterobacter cloacae; settings: 50 μM final drug concentration; for fold induction at 50 µM: Enterobacter cloacae, 3 h
E. faecium = format: cell-based, Enterococcus faecium; settings: 50 μM final drug concentration; for fold induction at 50 µM: Enterococcus faecium, 3 h
E. coli = format: cell-based, Escherichia coli; settings: 50 μM final drug concentration; for fold induction at 50 µM: Escherichia coli, 3 h
[1] = test system: A. baumannii strain 98-37-09; format: cell-based, Acinetobacter baumannii; settings: 50 μM final drug concentration; for fold induction at 50 µM: Acinetobacter baumannii, 983709, 3 h
K. pneumoniae = format: cell-based, Klebsiella pneumoniae; settings: 50 μM final drug concentration; for fold induction at 50 µM: Klebsiella pneumoniae, 3 h
[2] = test system: S. aureus strain USA300-0114; format: cell-based, Staphylococcus aureus; settings: 50 μM final drug concentration; for fold induction at 50 µM: Staphylococcus aureus, USA300, 3 h
[3] = 384-well format, cutoff for positive-scoring molecules 3-fold increase, read-out: AK-based Prestwick Library Screening Results, P. aeruginosa (increase in extracellular AK activity)
[4] = 384-well format, cutoff for positive-scoring molecules 3-fold increase, read-out: AK-based Prestwick Library Screening Results, E. cloacae (increase in extracellular AK activity)
[5] = 384-well format, cutoff for positive-scoring molecules 3-fold increase, read-out: AK-based Prestwick Library Screening Results, E. faecium (increase in extracellular AK activity)
[6] = 384-well format, cutoff for positive-scoring molecules 3-fold increase, read-out: AK-based Prestwick Library Screening Results, E. coli (increase in extracellular AK activity)
[7] = 384-well format, cutoff for positive-scoring molecules 3-fold increase, read-out: AK-based Prestwick Library Screening Results, A. baumannii (increase in extracellular AK activity)
[8] = 384-well format, cutoff for positive-scoring molecules 3-fold increase, read-out: AK-based Prestwick Library Screening Results, K. pneumoniae (increase in extracellular AK activity)
[9] = 384-well format, cutoff for positive-scoring molecules 3-fold increase, read-out: AK-based Prestwick Library Screening Results, S. aureus (increase in extracellular AK activity)

CCN(CC)CCNC(=O)c1ccc(N)cc1 [Procainamide hydrochloride]
fold induction at 50 µM (P. aeruginosa; planktonic P. aeruginosa, cutoff for positive-scoring molecules 3-fold increase, read-out: AK-based Prestwick Library Screening Results, P. aeruginosa (increase in extracellular AK activity)): 0.6 | fold induction at 50 µM (E. cloacae; planktonic E. cloacae, cutoff for positive-scoring molecules 3-fold increase, read-out: AK-based Prestwick Library Screening Results, E. cloacae (increase in extracellular AK activity)): 0.9 | fold induction at 50 µM (E. faecium; planktonic E. faecium, cutoff for positive-scoring molecules 3-fold increase, read-out: AK-based Prestwick Library Screening Results, E. faecium (increase in extracellular AK activity)): 1 | fold induction at 50 µM (E. coli; planktonic E. coli, cutoff for positive-scoring molecules 3-fold increase, read-out: AK-based Prestwick Library Screening Results, E. coli (increase in extracellular AK activity)): 0.6 | fold induction at 50 µM ([1]; planktonic A. baumannii, cutoff for positive-scoring molecules 3-fold increase, read-out: AK-based Prestwick Library Screening Results, A. baumannii (increase in extracellular AK activity)): 0.7 | fold induction at 50 µM (K. pneumoniae; planktonic K. pneumoniae, cutoff for positive-scoring molecules 3-fold increase, read-out: AK-based Prestwick Library Screening Results, K. pneumoniae (increase in extracellular AK activity)): 0.6 | fold induction at 50 µM ([2]; planktonic S. aureus, cutoff for positive-scoring molecules 3-fold increase, read-out: AK-based Prestwick Library Screening Results, S. aureus (increase in extracellular AK activity)): 0.6

O=C([O-])c1ccccc1-c1c2cc(Br)c(=O)cc-2oc2[c]([Hg+])c([O-])c(Br)cc12.[Na+].[Na+].[OH-] [Merbromin]
AK-based Prestwick Library Screening Results, P. aeruginosa (fold increase in extracellular AK activity) (P. aeruginosa; […]): 0.4 | AK-based Prestwick Library Screening Results, E. cloacae (fold increase in extracellular AK activity) (E. cloacae; […]): 1.4 | AK-based Prestwick Library Screening Results, E. faecium (fold increase in extracellular AK activity) (E. faecium; […]): 0.6 | AK-based Prestwick Library Screening Results, E. coli (fold increase in extracellular AK activity) (E. coli; […]): 0.5 | AK-based Prestwick Library Screening Results, A. baumannii (fold increase in extracellular AK activity) ([1]; […]): 0.7 | AK-based Prestwick Library Screening Results, K. pneumoniae (fold increase in extracellular AK activity) (K. pneumoniae; […]): 0.4 | AK-based Prestwick Library Screening Results, S. aureus (fold increase in extracellular AK activity) ([2]; […]): 0.2

Nc1ccc(S(=O)(=O)Nc2ncccn2)cc1 [Sulfadiazine]
fold induction at 50 µM (P. aeruginosa; [3]): 0.8 | fold induction at 50 µM (E. cloacae; [4]): 0.9 | fold induction at 50 µM (E. faecium; [5]): 0.8 | fold induction at 50 µM (E. coli; [6]): 1 | fold induction at 50 µM [1, 7]: 1.2 | fold induction at 50 µM (K. pneumoniae; [8]): 0.7 | fold induction at 50 µM [2, 9]: 0.7

CC(C)(C)NCC(O)c1ccc(O)c(CO)c1 (stereo not shown) [Salbutamol]
fold induction at 50 µM (P. aeruginosa; [3]): 0.8 | fold induction at 50 µM (E. cloacae; [4]): 1.4 | fold induction at 50 µM (E. faecium; [5]): 1 | fold induction at 50 µM (E. coli; [6]): 0.9 | fold induction at 50 µM [1, 7]: 0.9 | fold induction at 50 µM (K. pneumoniae; [8]): 0.7 | fold induction at 50 µM [2, 9]: 0.8

COc1cc2ccc(=O)oc2cc1O [Scopoletin]
fold induction at 50 µM (P. aeruginosa; cutoff for positive-scoring molecules 3-fold increase, read-out: AK-based Prestwick Library Screening Results, P. aeruginosa (fold increase in extracellular AK activity)): 0.4 | fold induction at 50 µM (E. cloacae; cutoff for positive-scoring molecules 3-fold increase, read-out: AK-based Prestwick Library Screening Results, E. cloacae (fold increase in extracellular AK activity)): 0.3 | fold induction at 50 µM (E. faecium; cutoff for positive-scoring molecules 3-fold increase, read-out: AK-based Prestwick Library Screening Results, E. faecium (fold increase in extracellular AK activity)): 0.9 | fold induction at 50 µM (E. coli; cutoff for positive-scoring molecules 3-fold increase, read-out: AK-based Prestwick Library Screening Results, E. coli (fold increase in extracellular AK activity)): 0.4 | fold induction at 50 µM ([1]; cutoff for positive-scoring molecules 3-fold increase, read-out: AK-based Prestwick Library Screening Results, A. baumannii (fold increase in extracellular AK activity)): 0.4 | fold induction at 50 µM (K. pneumoniae; cutoff for positive-scoring molecules 3-fold increase, read-out: AK-based Prestwick Library Screening Results, K. pneumoniae (fold increase in extracellular AK activity)): 0.4 | fold induction at 50 µM ([2]; cutoff for positive-scoring molecules 3-fold increase, read-out: AK-based Prestwick Library Screening Results, S. aureus (fold increase in extracellular AK activity)): 0.3

CC(C)(CO)[C@@H](O)C(=O)NCCC(=O)O [calcium salt monohydrate]
fold induction at 50 µM (P. aeruginosa; planktonic, cutoff for positive 3-fold increase, read-out: AK-based Prestwick Library Screening Results, P. aeruginosa (fold increase in extracellular AK activity)): 1 | fold induction at 50 µM (E. cloacae; planktonic, cutoff for positive 3-fold increase, read-out: AK-based Prestwick Library Screening Results, E. cloacae (fold increase in extracellular AK activity)): 1.4 | fold induction at 50 µM (E. faecium; planktonic, cutoff for positive 3-fold increase, read-out: AK-based Prestwick Library Screening Results, E. faecium (fold increase in extracellular AK activity)): 1.1 | fold induction at 50 µM (E. coli; planktonic, cutoff for positive 3-fold increase, read-out: AK-based Prestwick Library Screening Results, E. coli (fold increase in extracellular AK activity)): 1.1 | fold induction at 50 µM ([1]; planktonic, cutoff for positive 3-fold increase, read-out: AK-based Prestwick Library Screening Results, A. baumannii (fold increase in extracellular AK activity)): 1.1 | fold induction at 50 µM (K. pneumoniae; planktonic, cutoff for positive 3-fold increase, read-out: AK-based Prestwick Library Screening Results, K. pneumoniae (fold increase in extracellular AK activity)): 1 | fold induction at 50 µM ([2]; planktonic, cutoff for positive 3-fold increase, read-out: AK-based Prestwick Library Screening Results, S. aureus (fold increase in extracellular AK activity)): 1.1

Cc1ccsc1/C=C/C1=NCCCN1C [Morantel tartrate]
fold induction at 50 µM (P. aeruginosa; planktonic P. aeruginosa, 384-well, […], read-out: AK-based Prestwick Library Screening Results: P. aeruginosa (increase in extracellular AK activity)): 1.2 | fold induction at 50 µM (E. cloacae; planktonic E. cloacae, 384-well, […], read-out: AK-based Prestwick Library Screening Results: E. cloacae (increase in extracellular AK activity)): 1.3 | fold induction at 50 µM (E. faecium; planktonic E. faecium, 384-well, […], read-out: AK-based Prestwick Library Screening Results: E. faecium (increase in extracellular AK activity)): 0.8 | fold induction at 50 µM (E. coli; planktonic E. coli, 384-well, […], read-out: AK-based Prestwick Library Screening Results: E. coli (increase in extracellular AK activity)): 1.4 | fold induction at 50 µM ([1]; planktonic A. baumannii, 384-well, […], read-out: AK-based Prestwick Library Screening Results: A. baumannii (increase in extracellular AK activity)): 1.1 | fold induction at 50 µM (K. pneumoniae; planktonic K. pneumoniae, 384-well, […], read-out: AK-based Prestwick Library Screening Results: K. pneumoniae (increase in extracellular AK activity)): 0.9 | fold induction at 50 µM ([2]; planktonic S. aureus, 384-well, […], read-out: AK-based Prestwick Library Screening Results: S. aureus (increase in extracellular AK activity)): 1.2

COC1=CC(=O)C[C@@H](C)[C@]12Oc1c(Cl)c(OC)cc(OC)c1C2=O [Griseofulvin]
fold induction at 50 µM (P. aeruginosa; planktonic P. aeruginosa, 384-well, cutoff for positive-scoring molecules 3-fold increase, read-out: AK-based Prestwick Library Screening Results: P. aeruginosa (increase in extracellular AK activity)): 1.3 | fold induction at 50 µM (E. cloacae; planktonic E. cloacae, 384-well, cutoff for positive-scoring molecules 3-fold increase, read-out: AK-based Prestwick Library Screening Results: E. cloacae (increase in extracellular AK activity)): 1.3 | fold induction at 50 µM (E. faecium; planktonic E. faecium, 384-well, cutoff for positive-scoring molecules 3-fold increase, read-out: AK-based Prestwick Library Screening Results: E. faecium (increase in extracellular AK activity)): 1.1 | fold induction at 50 µM (E. coli; planktonic E. coli, 384-well, cutoff for positive-scoring molecules 3-fold increase, read-out: AK-based Prestwick Library Screening Results: E. coli (increase in extracellular AK activity)): 1.3 | fold induction at 50 µM ([1]; planktonic A. baumannii, 384-well, cutoff for positive-scoring molecules 3-fold increase, read-out: AK-based Prestwick Library Screening Results: A. baumannii (increase in extracellular AK activity)): 1.4 | fold induction at 50 µM (K. pneumoniae; planktonic K. pneumoniae, 384-well, cutoff for positive-scoring molecules 3-fold increase, read-out: AK-based Prestwick Library Screening Results: K. pneumoniae (increase in extracellular AK activity)): 0.9 | fold induction at 50 µM ([2]; planktonic S. aureus, 384-well, cutoff for positive-scoring molecules 3-fold increase, read-out: AK-based Prestwick Library Screening Results: S. aureus (increase in extracellular AK activity)): 1.4

C[C@]12C=CC(=O)C=C1CC[C@H]1[C@@H]3C[C@@H](O)[C@](O)(C(=O)CO)[C@@]3(C)C[C@H](O)[C@@]12F [Triamcinolone]
fold induction at 50 µM (P. aeruginosa; [3]): 0.7 | fold induction at 50 µM (E. cloacae; [4]): 1.2 | fold induction at 50 µM (E. faecium; [5]): 1 | fold induction at 50 µM (E. coli; [6]): 1 | fold induction at 50 µM [1, 7]: 0.9 | fold induction at 50 µM (K. pneumoniae; [8]): 0.7 | fold induction at 50 µM [2, 9]: 0.8

C/C=C1/C[N@+]2(C)CC[C@]34C(=C(C=O)[C@H]1C[C@@H]32)Nc1ccccc14.[Cl-] [Fluorocurarine chloride]
AK-based Prestwick Library Screening Results, P. aeruginosa (fold increase in extracellular AK activity) (P. aeruginosa; planktonic, […]): 0.8 | AK-based Prestwick Library Screening Results, E. cloacae (fold increase in extracellular AK activity) (E. cloacae; planktonic, […]): 1.4 | AK-based Prestwick Library Screening Results, E. faecium (fold increase in extracellular AK activity) (E. faecium; planktonic, […]): 0.9 | AK-based Prestwick Library Screening Results, E. coli (fold increase in extracellular AK activity) (E. coli; planktonic, […]): 0.9 | AK-based Prestwick Library Screening Results, A. baumannii (fold increase in extracellular AK activity) ([1]; planktonic, […]): 0.9 | AK-based Prestwick Library Screening Results, K. pneumoniae (fold increase in extracellular AK activity) (K. pneumoniae; planktonic, […]): 0.7 | AK-based Prestwick Library Screening Results, S. aureus (fold increase in extracellular AK activity) ([2]; planktonic, […]): 0.8

Reference: patent US10004701B2, “Methods and compositions for treating infection” (UNIVERSITY OF ROCHESTER, priority 2012, dated 2018)
